Source: PMC3992933 (Peptides, 2014)
No end group written: not given here.

Tests used:
[1] = test system: immobilized adhesins from the periodontal pathogen Porphyromonas gingivalis; conditions: ref [2], [5], [18]; cited from earlier work
[2] = test system: immobilized P. gingivalis hemagglutinin B (HagB); conditions: ref [2]; cited from earlier work
[3] = target: human serum albumin (HSA) (Homo sapiens, UniProt P02768); test: SPR spectroscopy, HBD binding to immobilized human serum albumin; conditions: in terms of absolute response and kinetic shape of binding
[4] = target: Bla g2 from the German cockroach (Blattella germanica) (Blattella germanica); test: SPR

histatin 5
binding to immobilized adhesins from P. gingivalis (in words) [1]: specifically bind
binding to immobilized HagB (in words) [2]: bind specifically

HBD1: human β-defensin used as a control β-defensin; purchased from PeproTech, Inc. (DHYNCVSSGGQCLYSACPIFTKIQGTCYRGKAKCCK; ends and bridges not checked; cysteine pairing not given here)
binding to HSA compared with Bla g2 (in words) [3]: bound to immobilized HSA similar to Bla g2

GIINTLQKYYCRVRGGRCAVLSCLPKEEQIGKCSTRGRKCCRRKK (ends and bridges not checked; cysteine pairing not given here) [Human β-defensin 3]
Kd [4]: 5.9 µM
